Assay results as given in patent US20020041880A1, “Method of treating cancer” (priority 2000, published 2002).

Row | melting point [°C] | SMILES
1 | 141 to 143 | c1cc(-c2cnn3cc(-c4ccc(OCCN5CCCCC5)cc4)cnc23)cs1 [Example 4, 6-[4-(2-piperidin-1-yl-ethoxy)-phenyl]-3-thiophen-3-yl-pyrazolo[1,5-a]pyrimidine]
2 | 149 to 151 | c1cc(-c2cnn3cc(-c4ccc(OCCN5CCOCC5)cc4)cnc23)cs1 [Example 3, 3-(3-thienyl)-6-(4-(2-(4-morpholinyl)ethoxy)phenyl)pyrazolo(1,5-A)pyrimidine]
